What is called IC50 is the concentration needed to halve the response being measured.

Assay [1] addresses T1, recombinant human serotonin receptor 5-HT2A (Homo sapiens, UniProt P28223).
T1 construct: expressed in transfected cells; method B: loaded with Ca2+ dye
The assay is described as follows: 5-HT2A antagonist Ca2+ assay in CHO-K1 cells (method A aequorin luminescence / method B FLIPR fluorescence). Conditions: antagonist mode vs EC80 of reference agonist, method A or B, read-out: 5HT2A IC50. The class given is cell-based. An outline of the steps:
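Method A: CHO-K1 cells co-expressing human 5-HT2A and mitochondrial apoaequorin were given reference agonist at EC80 15 min after compound, with luminescence read. Method B: dye-loaded 5-HT2A CHO-K1 cells were pretreated with compound, then given serotonin at EC80, with FLIPR fluorescence read. IC50s came from nonlinear fits of percent inhibition.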

The target of assay [2] is human sodium channel NaV1.2 (Homo sapiens, UniProt Q99250). The experiment in a line: NaV1.2 inhibition, automated patch-clamp (Q-Patch HTX), slow inactivated state (state C). The format is cell-based. Conditions: hNaV1.2 CHO cells, slow inactivated state; for inhibition at 1 µM: 1 μM compound, read-out: NaV1.2 (% inh), 1 μM; for inhibition at 10 µM: 10 μM compound, read-out: NaV1.2 (% inh), 10 μM; for IC50: read-out: NaV1.2 IC50. An outline of the steps: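 CHO K-1 cells stably expressing human NaV1.2, whole-cell automated patch clamp, holding −100 mV; slow-inactivated state (state C) read at a 5 ms step to 0 mV after 10 s at −50 mV and 15 ms at −90 mV. Percent inhibition vs vehicle; IC50 by nonlinear least-squares fit.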
human sodium channel NaV1.2, sequence (Q99250 whole entry): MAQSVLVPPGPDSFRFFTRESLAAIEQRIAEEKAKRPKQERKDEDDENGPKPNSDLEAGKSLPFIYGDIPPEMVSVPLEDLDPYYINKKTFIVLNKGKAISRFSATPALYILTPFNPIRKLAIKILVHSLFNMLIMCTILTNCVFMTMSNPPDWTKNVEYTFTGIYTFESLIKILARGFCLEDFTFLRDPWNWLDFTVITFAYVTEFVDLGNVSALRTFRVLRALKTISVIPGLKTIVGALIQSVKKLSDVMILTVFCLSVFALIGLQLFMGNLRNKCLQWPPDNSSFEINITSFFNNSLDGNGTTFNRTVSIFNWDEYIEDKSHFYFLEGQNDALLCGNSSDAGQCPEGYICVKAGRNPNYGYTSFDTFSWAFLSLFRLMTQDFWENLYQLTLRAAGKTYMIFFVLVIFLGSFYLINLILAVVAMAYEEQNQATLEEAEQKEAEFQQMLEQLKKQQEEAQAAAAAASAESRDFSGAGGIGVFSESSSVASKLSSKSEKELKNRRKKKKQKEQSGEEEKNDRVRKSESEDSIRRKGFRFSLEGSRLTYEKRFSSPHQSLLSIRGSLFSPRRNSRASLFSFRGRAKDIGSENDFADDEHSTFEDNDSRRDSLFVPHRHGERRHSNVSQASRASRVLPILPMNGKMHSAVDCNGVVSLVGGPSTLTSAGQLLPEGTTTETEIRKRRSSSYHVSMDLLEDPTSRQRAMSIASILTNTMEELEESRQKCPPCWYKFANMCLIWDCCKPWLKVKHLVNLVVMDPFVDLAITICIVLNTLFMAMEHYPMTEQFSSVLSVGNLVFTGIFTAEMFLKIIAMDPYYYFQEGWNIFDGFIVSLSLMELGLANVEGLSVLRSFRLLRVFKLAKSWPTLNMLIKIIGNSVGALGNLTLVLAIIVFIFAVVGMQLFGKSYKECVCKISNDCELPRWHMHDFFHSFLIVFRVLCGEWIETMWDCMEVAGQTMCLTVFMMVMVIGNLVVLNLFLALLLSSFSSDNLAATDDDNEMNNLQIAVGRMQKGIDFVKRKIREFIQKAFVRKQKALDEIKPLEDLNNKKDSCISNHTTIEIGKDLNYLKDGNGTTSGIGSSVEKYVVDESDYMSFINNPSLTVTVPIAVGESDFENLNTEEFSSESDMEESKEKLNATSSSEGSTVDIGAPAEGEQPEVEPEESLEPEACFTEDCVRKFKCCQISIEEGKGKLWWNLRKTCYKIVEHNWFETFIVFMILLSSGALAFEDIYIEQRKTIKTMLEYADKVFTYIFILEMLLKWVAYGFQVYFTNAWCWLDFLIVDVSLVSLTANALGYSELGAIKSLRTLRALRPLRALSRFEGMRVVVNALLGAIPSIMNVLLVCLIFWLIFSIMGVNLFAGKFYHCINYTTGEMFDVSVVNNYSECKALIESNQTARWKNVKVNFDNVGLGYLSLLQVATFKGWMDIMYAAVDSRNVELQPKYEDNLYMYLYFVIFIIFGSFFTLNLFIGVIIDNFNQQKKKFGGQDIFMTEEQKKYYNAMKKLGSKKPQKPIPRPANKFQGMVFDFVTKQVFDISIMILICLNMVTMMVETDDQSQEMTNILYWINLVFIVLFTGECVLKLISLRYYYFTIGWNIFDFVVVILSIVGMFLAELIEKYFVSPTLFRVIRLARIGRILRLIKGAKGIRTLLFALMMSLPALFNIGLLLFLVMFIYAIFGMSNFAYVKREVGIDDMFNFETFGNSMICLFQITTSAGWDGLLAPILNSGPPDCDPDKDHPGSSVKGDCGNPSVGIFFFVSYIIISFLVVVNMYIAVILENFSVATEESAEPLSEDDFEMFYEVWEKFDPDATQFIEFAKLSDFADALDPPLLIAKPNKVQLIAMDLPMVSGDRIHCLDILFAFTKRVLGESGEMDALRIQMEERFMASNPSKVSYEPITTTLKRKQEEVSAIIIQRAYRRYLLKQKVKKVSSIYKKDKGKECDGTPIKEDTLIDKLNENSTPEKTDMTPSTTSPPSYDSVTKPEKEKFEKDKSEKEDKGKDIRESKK

T1 sequence (P28223 whole entry): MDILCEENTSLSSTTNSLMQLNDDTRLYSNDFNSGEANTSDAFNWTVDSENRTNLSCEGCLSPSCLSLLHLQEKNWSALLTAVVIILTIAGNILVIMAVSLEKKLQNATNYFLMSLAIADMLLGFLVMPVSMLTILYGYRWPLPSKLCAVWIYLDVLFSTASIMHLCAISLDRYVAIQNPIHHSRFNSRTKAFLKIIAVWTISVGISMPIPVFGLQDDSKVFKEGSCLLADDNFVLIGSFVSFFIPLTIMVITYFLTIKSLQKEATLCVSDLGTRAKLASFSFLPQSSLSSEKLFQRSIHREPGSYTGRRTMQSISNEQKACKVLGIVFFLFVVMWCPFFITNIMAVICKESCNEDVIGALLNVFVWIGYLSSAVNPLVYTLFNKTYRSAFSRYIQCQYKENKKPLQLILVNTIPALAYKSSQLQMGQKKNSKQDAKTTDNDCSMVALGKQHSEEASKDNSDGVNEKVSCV

Consider `c1ccc2c(c1)CCC1(CCN(CC3Cc4ccncc4C3)CC1)O2` (stereo not shown) [Example 412, 1′-((6,7-dihydro-5H-cyclopenta[c]pyridin-6-yl)methyl)spiro[chromane-2,4′-piperidine]], for which, in assay [1], the IC50 turned out to be 1.86 µM. The inhibition at 1 µM in assay [2] came out at 18%.

On to `c1ccc2c(c1)CCC1(CCN(CC3COCc4ccccc43)CC1)O2` (stereo not shown) [Example 414, 1′-(isochroman-4-ylmethyl)spiro[chromane-2,4′-piperidine]], for which the IC50 in assay [1] is 0.26 µM. Besides, the inhibition at 1 µM in assay [2] was determined as 29%.

As for `COc1cccc(CN2CCC3(CCc4ccccc4O3)CC2)c1` [Example 417, 1′-(3-methoxybenzyl) spiro[chromane-2,4′-piperidine]], the IC50 in assay [1] stood at 0.69 µM. Besides, the inhibition at 10 µM in assay [2] is 94%.

With `c1ccc2c(c1)CCC1(CCN(CCC3CCc4ccccc43)CC1)O2` (stereo not shown) [Example 418, 1′-(2-(2,3-dihydro-1H-inden-1-yl)ethyl)spiro[chromane-2,4′-piperidine]], the IC50 in assay [1] is 0.16 µM; in assay [2], 1.13 µM.

Turning to `c1ccc2c(c1)CCC1(CCN(CCC3Cc4cccnc4C3)CC1)O2` (stereo not shown) [Example 419, 1′-(2-(6,7-dihydro-5H-cyclopenta[b]pyridin-6-yl)ethyl)spiro[chromane-2,4′-piperidine]], the IC50 in assay [1] stood at 0.22 µM. Moreover, the inhibition at 1 µM in assay [2] was found to be 6%.

Consider `c1ccc2c(c1)CCC1(CCN(CCC3Cc4ccncc4C3)CC1)O2` (stereo not shown) [Example 420, 1′-(2-(6,7-dihydro-5H-cyclopenta[c]pyridin-6-yl)ethyl)spiro[chromane-2,4′-piperidine]], for which the IC50 in assay [1] came to 0.25 µM. The inhibition at 1 µM in assay [2] turned out to be 0%.

With `c1ccc2c(c1)CCC1(CCN(CCC3COCc4ccccc43)CC1)O2` (stereo not shown) [Example 421, 1′-(2-(isochroman-4-yl)ethyl)spiro[chromane-2,4′-piperidine]], the half-inhibitory concentration (IC50) in assay [1] turned out to be 0.13 µM. In addition, the inhibition at 1 µM in assay [2] is 29%.

For the compound `O=C1c2ccccc2CCN1CCN1CCC2(CCc3ccccc3O2)CC1` [Example 422, 2-(2-(spiro[chromane-2,4′-piperidin]-1′-yl)ethyl)-3,4-dihydroisoquinolin-1(2H)-one], the results for the IC50 in assay [1] and in assay [2] were 0.07 µM and 0.4 µM, respectively.

Regarding `C[C@@H]1C[C@@]2(CCc3ccccc3O2)CCN1CCN1CCc2ccccc2C1=O` [Example 426, 2-(2-((2R,2′R)-2′-methylspiro[chromane-2,4′-piperidin]-1′-yl)ethyl)-3,4-dihydroisoquinolin-1(2H)-one], the IC50 in assay [1] turned out to be 0.16 µM. Besides, in assay [2], the inhibition at 1 µM stood at 41%.

`COc1ccccc1CCN1CCC2(CCc3ccccc3O2)CC1` [Example 428, 1′-(2-methoxyphenethyl) spiro[chromane-2,4′-piperidine]]: the IC50 in assay [1] worked out at 0.19 µM. Also, the inhibition at 10 µM in assay [2] was 86%.

Consider `COc1cccc(CCN2CCC3(CCc4ccccc4O3)CC2)c1` [Example 429, 1′-(3-methoxyphenethyl) spiro[chromane-2,4′-piperidine]], for which the IC50 in assay [1] worked out at 0.37 µM; in assay [2], 1.34 µM.

For `c1ccc2c(c1)CCC1(CCN(CCO[C@H]3CCc4ccccc43)CC1)O2` [Example 432], the values for the IC50 in assay [1] and in assay [2] were 0.15 µM and 0.36 µM, respectively.

In the case of `OC(COC1CCCCC1)CN1CCC2(CCc3ccccc3O2)CC1` (stereo not shown) [Example 436, 1-(cyclohexyloxy)-3-(spiro[chromane-2,4′-piperidin]-1′-yl)propan-2-ol], the IC50 was found to be 0.02 µM in assay [1] and 0.26 µM in assay [2].

Regarding `O[C@H](COC1CCCCC1)CN1CCC2(CCc3ccccc3O2)CC1` [Example 437, (S)-1-(cyclohexyloxy)-3-(spiro[chromane-2,4′-piperidin]-1′-yl)propan-2-ol], the IC50 in assay [1] turned out to be 0.09 µM; in assay [2], 3.41 µM.

For the compound `O[C@@H](COC1CCCCC1)CN1CCC2(CCc3ccccc3O2)CC1` [Example 438, (R)-1-(cyclohexyloxy)-3-(spiro[chromane-2,4′-piperidin]-1′-yl)propan-2-ol], the IC50 in assay [1] is 0.15 µM; in assay [2] it was 1.31 µM.

Turning to `OC(COc1ccccc1)CN1CCC2(CCc3ccccc3O2)CC1` (stereo not shown) [Example 439, 1-phenoxy-3-(spiro[chromane-2,4′-piperidin]-1′-yl)propan-2-ol], the IC50 was 0.01 µM in assay [1] and 0.5 µM in assay [2].

As to `O[C@H](COc1ccccc1)CN1CCC2(CCc3ccccc3O2)CC1` [Example 440, (S)-1-phenoxy-3-(spiro[chromane-2,4′-piperidin]-1′-yl)propan-2-ol], in assay [1], the IC50 came to 0.08 µM. Moreover, the inhibition at 1 µM in assay [2] was -8%.

On to `O[C@@H](COc1ccccc1)CN1CCC2(CCc3ccccc3O2)CC1` [Example 441, (R)-1-phenoxy-3-(spiro[chromane-2,4′-piperidin]-1′-yl)propan-2-ol], for which the IC50 in assay [1] is 0.03 µM. For the same compound, the inhibition at 1 µM in assay [2] was 17%.

Turning to `c1ccc2c(c1)CC1(CCN(CC3CCc4ccccc43)CC1)CO2` (stereo not shown) [Example 442, 1′-((2,3-dihydro-1H-inden-1-yl)methyl)spiro[chromane-3,4′-piperidine]], the IC50 in assay [1] came out at 0.59 µM. Further, in assay [2], the inhibition at 1 µM came to 37%.

On to `c1ccc2c(c1)COC1(CCN(CC3CCc4ccccc43)CC1)C2` (stereo not shown) [Example 443, l′-((2,3-dihydro-1H-inden-1-yl)methyl)spiro[isochromane-3,4′-piperidine]], for which the IC50 amounted to 0.22 µM in assay [1] and 3.37 µM in assay [2].

For `O=C1Nc2ccccc2CC12CCN(C[C@H](O)COc1ccccc1)CC2` [Example 445, (S)-1-(2-hydroxy-3-phenoxypropyl)-1′,4′-dihydro-2′H-spiro[piperidine-4,3′-quinolin]-2′-one], the concentration for half-maximal inhibition (IC50) in assay [1] came to 0.3 µM. The inhibition at 1 µM in assay [2] was -2%.

For the compound `O=C1Nc2ccccc2CC12CCN(C[C@@H](O)COc1ccccc1)CC2` [Example 446, (R)-1-(2-hydroxy-3-phenoxypropyl)-1′,4′-dihydro-2′H-spiro[piperidine-4,3′-quinolin]-2′-one], the IC50 in assay [1] was 0.61 µM. Besides, the inhibition at 1 µM in assay [2] was 11%.

Take `O=C(NCCN1CCCCC1)c1cccc(-c2ccc(Oc3ccc(F)cc3)cc2)n1` [Example 447, 6-(4-(4-fluorophenoxy)phenyl)-N-(2-(piperidin-1-yl)ethyl)picolinamide]: the IC50 in assay [1] was determined as 1.26 µM. Moreover, in assay [2], the inhibition at 10 µM is 99%.
